Source: patent US9938273B2 (Plexxikon Inc., priority 2015, dated 2018)

test system: MOLM-14 F691L cells, FLT3 ITD and FLT3 F691L; assay: Cell proliferation assay (CellTiter-Glo), MOLM-14 F691L; type: cell-based; details: Homo sapiens, 72 h, 3d-Growth, GMean
Summary of the method: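 Three-day growth at 37 °C, 5% CO2 under compound (1 μM top final, 1:3 dilutions, eight points, 0.2% DMSO), read as ATP luminescence by CellTiter-Glo for IC50. Cells: MOLM-14 with FLT3 ITD plus D835Y or F691L, and IL-3-deprived Ba/F3 transfected with FLT3 ITD/D835Y, 1×10^4 per well.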

| Structure (SMILES) | IC50 [µM] |
| --- | --- |
| CC(C)(C#N)NC(=O)c1cccc(-c2cnc3[nH]c(-c4cnn(CC(F)(F)F)c4)cc3c2)n1 [Compound P-0193, N-(1-cyano-1-methyl-ethyl)-6-[2-[1-(2,2,2-trifluoroethyl)pyrazol-4-yl]-1H-pyrrolo[2,3-b]pyridin-5-yl]pyridine-2-carboxamide] | 0.0001 to 10 |
| CC(C)(C#N)NC(=O)c1cccc(-c2cnc3[nH]c(-c4cncnc4)cc3c2)n1 [Compound P-0195, N-(1-cyano-1-methyl-ethyl)-6-(2-pyrimidin-5-yl-1H-pyrrolo[2,3-b]pyridin-5-yl)pyridine-2-carboxamide] | 0.0001 to 10 |
| COc1ncc(-c2cc3cc(-c4cccc(C(=O)NC(C)(C)C#N)n4)cnc3[nH]2)cn1 [Compound P-0196, N-(1-cyano-1-methyl-ethyl)-6-[2-(2-methoxypyrimidin-5-yl)-1H-pyrrolo[2,3-b]pyridin-5-yl]pyridine-2-carboxamide] | 0.0001 to 10 |
| CC(C)(C#N)NC(=O)c1cccc(-c2cnc3[nH]c(-c4ccc(N5CCOCC5)nc4)cc3c2)n1 [Compound P-0197, N-(1-cyano-1-methyl-ethyl)-6-[2-(6-morpholino-3-pyridyl)-1H-pyrrolo[2,3-b]pyridin-5-yl]pyridine-2-carboxamide] | 0.0001 to 10 |
| CC(C)(C#N)NC(=O)c1cccc(-c2cnc3[nH]c(-c4cnc(C(F)(F)F)nc4)cc3c2)n1 [Compound P-0204, N-(1-cyano-1-methyl-ethyl)-6-[2-[2-(trifluoromethyl)pyrimidin-5-yl]-1H-pyrrolo[2,3-b]pyridin-5-yl]pyridine-2-carboxamide] | 0.0001 to 10 |
| CCCOc1ncc(-c2cc3cc(-c4cccc(C(=O)NC(C)(C)C#N)n4)cnc3[nH]2)cn1 [Compound P-0206, N-(1-cyano-1-methyl-ethyl)-6-[2-(2-propoxypyrimidin-5-yl)-1H-pyrrolo[2,3-b]pyridin-5-yl]pyridine-2-carboxamide] | 0.0001 to 10 |

Second part, the molecule after the results:

| IC50 [µM] | Structure (SMILES) |
| --- | --- |
| 0.0001 to 10 | CC(C)Oc1ncc(-c2cc3cc(-c4cccc(C(=O)NC(C)(C)C#N)n4)cnc3[nH]2)cn1 [Compound P-0191, N-(1-cyano-1-methyl-ethyl)-6-[2-(2-isopropoxypyrimidin-5-yl)-1H-pyrrolo[2,3-b]pyridin-5-yl]pyridine-2-carboxamide] |
| 0.0001 to 10 | Cc1nn(C(C)C)cc1-c1[nH]c2ncc(-c3cccc(C(=O)NC(C)(C)C#N)n3)cc2c1Cl [Compound P-0192] |
| 0.0001 to 10 | CC(C)(C#N)NC(=O)c1cccc(-c2cnc3[nH]c(-c4ccc(C5(C#N)CC5)cc4)cc3c2)n1 [Compound P-0194, 6-[2-[4-(1-cyanocyclopropyl)phenyl]-1H-pyrrolo[2,3-b]pyridin-5-yl]-N-(1-cyano-1-methyl-ethyl)pyridine-2-carboxamide] |
| 0.0001 to 10 | CC(C)(C#N)NC(=O)c1cccc(-c2cnc3[nH]c(-c4ccc(C(F)(F)F)nc4)cc3c2)n1 [Compound P-0201, N-(1-cyano-1-methyl-ethyl)-6-[2-[6-(trifluoromethyl)-3-pyridyl]-1H-pyrrolo[2,3-b]pyridin-5-yl]pyridine-2-carboxamide] |
| 0.0001 to 10 | CCOc1ncc(-c2cc3cc(-c4cccc(C(=O)NC(C)(C)C#N)n4)cnc3[nH]2)cn1 [Compound P-0203, N-(1-cyano-1-methyl-ethyl)-6-[2-(2-ethoxypyrimidin-5-yl)-1H-pyrrolo[2,3-b]pyridin-5-yl]pyridine-2-carboxamide] |
| 0.0001 to 10 | CCc1ncc(-c2cc3cc(-c4cccc(C(=O)NC(C)(C)C#N)n4)cnc3[nH]2)cn1 [Compound P-0205, N-(1-cyano-1-methyl-ethyl)-6-[2-(2-ethylpyrimidin-5-yl)-1H-pyrrolo[2,3-b]pyridin-5-yl]pyridine-2-carboxamide] |
| 0.0001 to 10 | CC(C)(C#N)NC(=O)c1cccc(-c2cnc3[nH]c(-c4ccc(F)nc4)cc3c2)n1 [Compound P-0208, N-(1-cyano-1-methyl-ethyl)-6-[2-(6-fluoro-3-pyridyl)-1H-pyrrolo[2,3-b]pyridin-5-yl]pyridine-2-carboxamide] |
